Active and inactive are the calls of the source. For most assays here, no stated cut-off is given here; in the data, actives have a measured EC50 and inactives only a lower limit.

Data on 12 molecules can be found in ChEMBL document CHEMBL1201862, “PubChem BioAssay data set” (2004).

System in the first experiment: not listed separately
As to the kind of experiment: Luminescence Cell-Based Dose Response HTS to Identify Activators of Luciferase Translation or Activity in H4 […] Cells. [Related pubchem assays: 1829 (Project Summary), 1814 (Primary HTS)]. The format is functional.
Details: not given
As a reminder, the EC50 is the concentration that produces a half-maximal response. Consider `O=C(c1ccccc1)[C@H]1[C@H](c2ccccc2)[C@@]2(N=C(c3ccccc3)OC2=O)C2c3ccccc3C=NN21` (some centres not stated), for which the EC50 is 19 µM (active).
The same measure, in the same setting: in the case of `CC(C)N(Cc1nccn1C)C(=O)CCc1nnc(CCCc2ccccc2)o1` it was 15.5 µM (active).
The same measure, in the same setting: in the case of `Cc1ccc(NC(=O)c2ocnc2C)cc1Cl` it was 1.04 µM (active).
On the same count and under the same terms, the value for `O=[N+]([O-])c1ccc(/C=C2\CCC(C3=CCCC3)=C2N2CCOCC2)cc1` was > 120 µM (not active).
With `CC(C)NC(=O)c1[nH]nc2c1CCc1ccccc1-2`, the EC50 was 56 µM (active).
The same measure, in the same setting: in the case of `CSc1ccc(/C=C(/NC(=O)c2ccccc2)C(=O)N2CCN(C)CC2)cc1` it was > 120 µM (not active).
On the same count and under the same terms, in the case of `S=C(Nc1ccc(Br)cc1Cl)N1CCC2(CC1)OCCO2` it was 23.5 µM (active); in that of `CCCn1c(N)c(Sc2ccc(C)cc2)c(=O)n(CCC)c1=O`, > 120 µM (not active); in that of `C(=N\Nc1nc(-c2ccccc2)cs1)/c1cccnc1`, 33.3 µM (active).
As to `COc1cc(/C=N/n2c(C)nnc2S)ccc1OCc1ccc(F)cc1`, the EC50 is recorded as > 120 µM (not active).

System in another experiment: not listed separately
As to the kind of experiment: cells. It counts as functional.
Details: not given
As a reminder, the IC50 is the point on the concentration scale where inhibition reaches its midpoint. For `O=C(NNC(=O)c1ccccc1F)c1ccc(-c2ccc(Cl)cc2)o1`, the IC50 is 8.21 µM (active).
As to `CCc1ccc(N2CCN(CCNC(=O)Nc3ccc(OC)cc3)CC2)cc1`, the IC50 was 38.2 µM (active).

In another experiment the test system is H4. Description: Luminescence Cell-Based Dose Response HTS to Identify Activators of 5'UTR Stem-Loop Driven Prion Protein mRNA Translation in H4 Neuroglioblastoma Cells. [Related pubchem assays: 1829 (Project Summary), 1814 (Primary HTS)]. It counts as functional. The conditions noted are these: Homo sapiens.
As to `O=C(c1ccccc1)[C@H]1[C@H](c2ccccc2)[C@@]2(N=C(c3ccccc3)OC2=O)C2c3ccccc3C=NN21` (some centres not stated), the EC50 is given as > 120 µM (not active).
On the same count and under the same terms, in the case of `CC(C)N(Cc1nccn1C)C(=O)CCc1nnc(CCCc2ccccc2)o1` it was 31.2 µM (active).
Still for that read-out and setting: in the case of `Cc1ccc(NC(=O)c2ocnc2C)cc1Cl` it was 6.44 µM (active); in that of `O=[N+]([O-])c1ccc(/C=C2\CCC(C3=CCCC3)=C2N2CCOCC2)cc1`, > 120 µM (not active); in that of `CC(C)NC(=O)c1[nH]nc2c1CCc1ccccc1-2`, 8.82 µM (active).
On to `CSc1ccc(/C=C(/NC(=O)c2ccccc2)C(=O)N2CCN(C)CC2)cc1`, for which the EC50 is > 60 µM (not active).
The same measure, in the same setting: the value for `S=C(Nc1ccc(Br)cc1Cl)N1CCC2(CC1)OCCO2` was 16 µM (active); that for `CCCn1c(N)c(Sc2ccc(C)cc2)c(=O)n(CCC)c1=O` was > 120 µM (not active); that for `C(=N\Nc1nc(-c2ccccc2)cs1)/c1cccnc1` was 44.1 µM (active).
On the same count and under the same terms, in the case of `COc1cc(/C=N/n2c(C)nnc2S)ccc1OCc1ccc(F)cc1` it was 32 µM (active).

System in the next experiment: not listed separately
Description: Luminescence Cell-Based Dose Confirmation HTS to Identify Activators of 5'UTR Stem-Loop Driven Alpha-Synuclein mRNA Translation in H4 Neuroglioblastoma Cells. [Related pubchem assays: 1829 (Project Summary), 1814 (Primary HTS)]. The format is functional.
Details: not given
For the molecule `O=C(c1ccccc1)[C@H]1[C@H](c2ccccc2)[C@@]2(N=C(c3ccccc3)OC2=O)C2c3ccccc3C=NN21` (some centres not stated), the EC50 is 6.71 µM (active).
Still for that read-out and setting: the value for `CC(C)N(Cc1nccn1C)C(=O)CCc1nnc(CCCc2ccccc2)o1` was 12.7 µM (active); that for `Cc1ccc(NC(=O)c2ocnc2C)cc1Cl` was 0.145 µM (active).
As for `O=[N+]([O-])c1ccc(/C=C2\CCC(C3=CCCC3)=C2N2CCOCC2)cc1`, the EC50 is on record as > 120 µM (not active).
Same read-out and setting: the value for `CC(C)NC(=O)c1[nH]nc2c1CCc1ccccc1-2` was 5.26 µM (active); that for `CSc1ccc(/C=C(/NC(=O)c2ccccc2)C(=O)N2CCN(C)CC2)cc1` was > 120 µM (not active).
As to `S=C(Nc1ccc(Br)cc1Cl)N1CCC2(CC1)OCCO2`, the EC50 is reported as > 120 µM (not active).
The same measure, in the same setting: in the case of `CCCn1c(N)c(Sc2ccc(C)cc2)c(=O)n(CCC)c1=O` it was > 120 µM (not active).
For the molecule `C(=N\Nc1nc(-c2ccccc2)cs1)/c1cccnc1`, the EC50 is 0.198 µM (active).
Same read-out and setting: the value for `COc1cc(/C=N/n2c(C)nnc2S)ccc1OCc1ccc(F)cc1` was > 120 µM (not active).
